Laboratory results published in patent publication US4337199A, “Antibiotic β-lactam compounds, production thereof, and their use as antimicrobial agent” (Sanraku-Ocean Co., Ltd., priority 1978, dated 1982).
Converted amounts (≈) assume the structure as drawn.

How the values were obtained:
[1] = test system: Staphylococcus aureus Smith strain; assay: Infection treating test; assay type: in vivo, Staphylococcus aureus (in ddy male mice); settings: sc, 2 h, mice infected intraperitoneally, 5×10^5 cells per mouse, subcutaneous, two hours after infection, read-out: CD50 (the source's name)
Procedure: The in vivo activities of the compounds of formula (I-d) were determined by using mice (five per group, ddy male mice, Shizuoka) which had been intraperitoneally infected with Staphylococcus aureus Smith strain in an amount of 5×10^5 cells per mouse. Two hours after the infection, an injection containing a sodium salt of each of the compounds of formula (I-d) was subcutaneously administered to the mice.

[2] = test system: Gram-positive and Gram-negative bacteria; assay: antibiotic activity (antimicrobial spectrum); assay type: cell-based; settings: comparison in words
Procedure: (§1) The minimum inhibitory concentrations of the compounds of formula (I-a-1) or (I-b-1) in Tables I-1 to I-7 and the known compounds in Table I-8 on the various microorganisms shown in the above tables were measured by an agar dilution assay method using a brain heart infusion agar medium "Difco" (a product of Difco Laboratories Inc.)
(§2) A sample of the test compound was dissolved in sterile distilled water and diluted to prepare a two-fold dilution series of the compound solution. In a petri plate of 9 cm diameter, 1 ml of the compound solution was added to 9 ml of molten sterile heart infusion agar medium (Difco Laboratories Inc.) at about 60° C. to prepare the compound-containing agar plate. An overnight culture of each test organism indicated in the above table which was prepared by stationary cultivation in Trypto-Soy broth (Eiken Chemi. Co., Ltd.) at 35° C. for 18 to 20 hours, was diluted with the Trypto-Soy broth to give approximately 10^8 cells/ml and the diluted inoculum was inoculated onto the compound-containing agar plates. After cultivating the plates at 35° C. for 20 hours, the growth of the organism was observed. The minimum concentration of the compound at which no growth of the microorganism was noted was determined, and defined as the minimum inhibitory concentration of the test compound.

[3] = test system: Staphylococcus aureus Smith; assay: minimum inhibitory concentration, agar dilution assay; assay type: cell-based; settings: agar dilution, 35° C., 20 hours, read-out: minimum inhibitory concentration
Procedure: (§3) The antibiotic activities shown in Tables I-1 to I-8 above were determined in the following manner.
as §1, §2

[4] = test system: Enterobacter aerogenes E19; assay: as above; assay type: cell-based; settings: Klebsiella aerogenes, E19; agar dilution, 35° C., 20 hours; read-out: minimum inhibitory concentration
Procedure: as §3, §1, §2

[5] = test system: Proteus rettgeri P7; assay: as above; assay type: cell-based; settings: Providencia rettgeri, P7; agar dilution, 35° C., 20 hours; read-out: minimum inhibitory concentration
Procedure: as §3, §1, §2

[6] = test system: Enterobacter sp. E8; assay: as above; assay type: cell-based; settings: SP.E8, agar dilution, 35° C., 20 hours, read-out: minimum inhibitory concentration
Procedure: as §3, §1, §2

[7] = test system: Serratia marcescens S18; assay: as above; assay type: cell-based; settings: S18, agar dilution, 35° C., 20 hours, read-out: minimum inhibitory concentration
Procedure: as §3, §1, §2

[8] = test system: Pseudomonas aeruginosa NCTC10490; assay: as above; assay type: cell-based; settings: NCTC10490, agar dilution, 35° C., 20 hours, read-out: minimum inhibitory concentration
Procedure: as §3, §1, §2

[9] = test system: Proteus sp. P22; assay: as above; assay type: cell-based; settings: agar dilution, 35° C., 20 hours; read-out: minimum inhibitory concentration
Procedure: as §3, §1, §2

[10] = test system: Klebsiella pneumoniae K-13; assay: as above; assay type: cell-based; settings: K13, agar dilution, 35° C., 20 hours, read-out: minimum inhibitory concentration
Procedure: as §3, §1, §2

[11] = test system: Alcaligenes faecalis A 1; assay: as above; assay type: cell-based; settings: A1, agar dilution, 35° C., 20 hours, read-out: minimum inhibitory concentration
Procedure: as §3, §1, §2

[12] = test system: Staphylococcus aureus Russell; assay: as above; assay type: cell-based; settings: agar dilution, 35° C., 20 hours, read-out: minimum inhibitory concentration
Procedure: as §3, §1, §2

[13] = test system: Comamonas terrigena B-996; assay: as above; assay type: cell-based; settings: B996, agar dilution, 35° C., 20 hours, read-out: minimum inhibitory concentration
Procedure: as §3, §1, §2

[14] = test system: Enterobacter cloacae 45; assay: as above; assay type: cell-based; settings: Enterobacter cloacae, 45; agar dilution, 35° C., 20 hours; read-out: minimum inhibitory concentration
Procedure: as §3, §1, §2

[15] = test system: Proteus mirabilis P6; assay: as above; assay type: cell-based; settings: P6, agar dilution, 35° C., 20 hours, read-out: minimum inhibitory concentration
Procedure: as §3, §1, §2

[16] = test system: Staphylococcus aureus FDA 209P; assay: as above; assay type: cell-based; settings: FDA209P, agar dilution, 35° C., 20 hours, read-out: minimum inhibitory concentration
Procedure: as §3, §1, §2

[17] = test system: Staphylococcus epidermidis; assay: as above; assay type: cell-based; settings: agar dilution, 35° C., 20 hours, read-out: minimum inhibitory concentration
Procedure: as §3, §1, §2

[18] = test system: Proteus vulgaris GN76; assay: as above; assay type: cell-based; settings: GN76, agar dilution, 35° C., 20 hours, read-out: minimum inhibitory concentration
Procedure: as §3, §1, §2

[19] = test system: Serratia marcescens T55; assay: as above; assay type: cell-based; settings: T55, agar dilution, 35° C., 20 hours, read-out: minimum inhibitory concentration
Procedure: as §3, §1, §2

[20] = test system: Sarcina lutea; assay: as above; assay type: cell-based; settings: Micrococcus luteus; agar dilution, 35° C., 20 hours; read-out: minimum inhibitory concentration
Procedure: as §3, §1, §2

[21] = test system: Bacillus subtilis ATCC 6633; assay: as above; assay type: cell-based; settings: ATCC6633, agar dilution, 35° C., 20 hours, read-out: minimum inhibitory concentration
Procedure: as §3, §1, §2

[22] = test system: Escherichia coli K-12; assay: as above; assay type: cell-based; settings: K12, agar dilution, 35° C., 20 hours, read-out: minimum inhibitory concentration
Procedure: as §3, §1, §2

[23] = test system: Escherichia coli RGN 823; assay: as above; assay type: cell-based; settings: RGN823, agar dilution, 35° C., 20 hours, read-out: minimum inhibitory concentration
Procedure: as §3, §1, §2

[24] = test system: Providencia sp. P8; assay: as above; assay type: cell-based; settings: SP.P8, agar dilution, 35° C., 20 hours, read-out: minimum inhibitory concentration
Procedure: as §3, §1, §2

[25] = test system: Citrobacter freundii GN 346; assay: as above; assay type: cell-based; settings: GN346, agar dilution, 35° C., 20 hours, read-out: minimum inhibitory concentration
Procedure: as §3, §1, §2

[26] = test system: Pseudomonas aeruginosa IFO3445; assay: as above; assay type: cell-based; settings: IFO3445, agar dilution, 35° C., 20 hours, read-out: minimum inhibitory concentration
Procedure: as §3, §1, §2

CC(=O)NCCSC1=C(C(=O)O)N2C(=O)C(C(C)O)C2C1 (stereo not drawn) [PS-3B . Na, reference compound]
ED50 [1]: 2 mg/kg

CCC1C(=O)N2C(C(=O)O)=C(SCCNC(C)=O)CC12 (stereo not drawn) [PS-5, 3-(2-acetaminothylthio)-6-ethyl-7-oxo-1-azabicyclo-[3.2.0]hept-2-ene-2-carboxylic acid, reference compound]
antibiotic activity (in words) [2]: better antibiotic activity than cephazolin (CEZ) | MIC [3]: 0.1 µg/mL (≈ 0.335 µM) | MIC [4]: 3.13 µg/mL (≈ 10.5 µM) | MIC [5]: 12.5 µg/mL (≈ 41.9 µM) | MIC [6]: 1.56 µg/mL (≈ 5.23 µM) | MIC [7]: 6.25 µg/mL (≈ 20.9 µM) | MIC [8]: 12.5 µg/mL (≈ 41.9 µM) | MIC [9]: 25 µg/mL (≈ 83.8 µM) | MIC [10]: 6.25 µg/mL (≈ 20.9 µM) | MIC [11]: 0.39 µg/mL (≈ 1.31 µM) | MIC [12]: 0.1 µg/mL (≈ 0.335 µM) | MIC [13]: 0.013 µg/mL (≈ 0.0436 µM) | MIC [14]: 6.25 µg/mL (≈ 20.9 µM) | MIC [15]: 6.25 µg/mL (≈ 20.9 µM) | MIC [16]: 0.025 µg/mL (≈ 0.0838 µM) | MIC [17]: 0.1 µg/mL (≈ 0.335 µM) | MIC [18]: 12.5 µg/mL (≈ 41.9 µM) | MIC [19]: 6.25 µg/mL (≈ 20.9 µM) | MIC [20]: 0.05 µg/mL (≈ 0.168 µM) | MIC [21]: 0.1 µg/mL (≈ 0.335 µM) | MIC [22]: 1.56 µg/mL (≈ 5.23 µM) | MIC [23]: 3.13 µg/mL (≈ 10.5 µM) | MIC [24]: 3.13 µg/mL (≈ 10.5 µM) | MIC [25]: 3.13 µg/mL (≈ 10.5 µM) | MIC [26]: 25 µg/mL (≈ 83.8 µM)

CC(=O)NCCSC1=C(C(=O)O)N2C(=O)C(C(C)C)C2C1 (stereo not drawn) [PS-6, 3-(2-acetamidoethylthio)-6-isopropyl-7-oxo-1-azabicyclo[3.2.0]hept-2-ene-2-carboxylic acid, reference compound]
antibiotic activity (in words) [2]: better antibiotic activity than cephazolin (CEZ) | MIC [3]: 0.2 µg/mL (≈ 0.64 µM) | MIC [4]: 25 µg/mL (≈ 80 µM) | MIC [5]: 6.25 µg/mL (≈ 20 µM) | MIC [6]: 6.25 µg/mL (≈ 20 µM) | MIC [7]: 25 µg/mL (≈ 80 µM) | MIC [8]: 50 µg/mL (≈ 160 µM) | MIC [9]: 25 µg/mL (≈ 80 µM) | MIC [10]: 25 µg/mL (≈ 80 µM) | MIC [11]: 1.56 µg/mL (≈ 4.99 µM) | MIC [12]: 0.2 µg/mL (≈ 0.64 µM) | MIC [13]: 0.1 µg/mL (≈ 0.32 µM) | MIC [14]: 25 µg/mL (≈ 80 µM) | MIC [15]: 12.5 µg/mL (≈ 40 µM) | MIC [16]: 0.1 µg/mL (≈ 0.32 µM) | MIC [17]: 0.39 µg/mL (≈ 1.25 µM) | MIC [18]: 12.5 µg/mL (≈ 40 µM) | MIC [19]: 50 µg/mL (≈ 160 µM) | MIC [20]: 0.39 µg/mL (≈ 1.25 µM) | MIC [21]: 0.78 µg/mL (≈ 2.5 µM) | MIC [22]: 6.25 µg/mL (≈ 20 µM) | MIC [23]: 6.25 µg/mL (≈ 20 µM) | MIC [24]: 6.25 µg/mL (≈ 20 µM) | MIC [25]: 12.5 µg/mL (≈ 40 µM) | MIC [26]: 50 µg/mL (≈ 160 µM)

CC(O)[C@H]1C(=O)N2C(C(=O)O)=C(SCCO)C[C@H]12 (stereo partly drawn) [R1 --OH*, R21 --CH2 CH2 OH]
MIC [3]: 3.13 µg/mL (≈ 11.5 µM) | MIC [4]: 12.5 µg/mL (≈ 45.7 µM) | MIC [5]: 50 µg/mL (≈ 183 µM) | MIC [6]: 6.25 µg/mL (≈ 22.9 µM) | MIC [7]: 25 µg/mL (≈ 91.5 µM) | MIC [8]: 12.5 µg/mL (≈ 45.7 µM) | MIC [9]: 100 µg/mL (≈ 366 µM) | MIC [10]: 25 µg/mL (≈ 91.5 µM) | MIC [11]: 6.25 µg/mL (≈ 22.9 µM) | MIC [12]: 3.13 µg/mL (≈ 11.5 µM) | MIC [13]: 0.1 µg/mL (≈ 0.366 µM) | MIC [14]: 6.25 µg/mL (≈ 22.9 µM) | MIC [15]: 50 µg/mL (≈ 183 µM) | MIC [16]: 0.39 µg/mL (≈ 1.43 µM) | MIC [17]: 3.13 µg/mL (≈ 11.5 µM) | MIC [18]: 50 µg/mL (≈ 183 µM) | MIC [19]: 50 µg/mL (≈ 183 µM) | MIC [20]: 1.56 µg/mL (≈ 5.71 µM) | MIC [21]: 6.25 µg/mL (≈ 22.9 µM) | MIC [22]: 3.13 µg/mL (≈ 11.5 µM) | MIC [23]: 12.5 µg/mL (≈ 45.7 µM) | MIC [24]: 6.25 µg/mL (≈ 22.9 µM) | MIC [25]: 12.5 µg/mL (≈ 45.7 µM) | MIC [26]: 12.5 µg/mL (≈ 45.7 µM)

CCC1C(=O)N2C(C(=O)O)=C(SCCO)CC12 (stereo not drawn) [R1 H, R21 --CH2 CH2 OH, sodium 3-(2-hydroxyethylthio)-6-ethyl-7-oxo-1-azabicylo[3.2.0]hept-2-ene-2-carboxylate]
MIC [3]: 0.1 µg/mL | MIC [4]: 3.13 µg/mL | MIC [5]: 12.5 µg/mL | MIC [6]: 3.13 µg/mL | MIC [7]: 6.25 µg/mL | MIC [8]: 12.5 µg/mL | MIC [9]: 50 µg/mL | MIC [10]: 12.5 µg/mL | MIC [11]: 1.56 µg/mL | MIC [12]: 0.2 µg/mL | MIC [13]: 0.025 µg/mL | MIC [14]: 6.25 µg/mL | MIC [15]: 12.5 µg/mL | MIC [16]: 0.05 µg/mL | MIC [17]: 0.2 µg/mL | MIC [18]: 25 µg/mL | MIC [19]: 12.5 µg/mL | MIC [20]: 0.1 µg/mL | MIC [21]: 0.1 µg/mL | MIC [22]: 3.13 µg/mL | MIC [23]: 12.5 µg/mL | MIC [24]: 3.13 µg/mL | MIC [25]: 3.13 µg/mL | MIC [26]: 12.5 µg/mL
